Source: publication PMC8196580, “Identification of Kaurane-Type Diterpenes as Inhibitors of Leishmania Pteridine Reductase I” (Molecules, 2021)
Like-named read-outs stand apart in the source and are kept apart here.

Columns and labels:
L. major [1] = system: L. major; parameters: method as in ChEMBL; details: ref ChEMBL, cited from earlier work
L. major [2] = test: ChEMBL dataset of pIC50 values against L. major used for the RF model (Table S1); assay type: cell-based, Leishmania major; further: call rule not given here
[3] = ChemBL structures with pIC50 values used for Random forest model construction, L. major
[4] = Active/Inactive class assigned to the ChEMBL pIC50 value for Random forest model construction, ref ChEMBL
[5] = ChemBL structures with pIC50 values used for Random forest model construction (Table S1)
[6] = Active/Inactive class assigned to ChemBL structures for Random forest model construction (Table S1)

Fc1ccc(-c2nc3ccccn3c2-c2ccccc2)cc1 [CHEMBL2151873]
pIC50 Value (L. major [1]; [3]): 4.64 | Outcome (L. major [2]; [4]): Inactive

O=[N+]([O-])c1cccc(-c2c(-c3ccc(F)cc3)nc3ccccn23)c1 [CHEMBL2151874]
pIC50 Value (L. major [1]; [3]): 4.00 | Outcome (L. major [2]; [4]): Inactive

Fc1ccc(-c2nc3ccccn3c2-c2cccnc2)cc1 [CHEMBL2151875]
pIC50 Value (L. major [1]; [3]): 4.42 | Outcome (L. major [2]; [4]): Inactive

Fc1ccccc1-c1nc2ccccn2c1-c1ccccc1 [CHEMBL2151876]
pIC50 Value (L. major [1]; [3]): 4.41 | Outcome (L. major [2]; [4]): Inactive

Fc1ccccc1-c1nc2ccccn2c1-c1cccnc1 [CHEMBL2151877]
pIC50 Value (L. major [1]; [3]): 4.46 | Outcome (L. major [2]; [4]): Inactive

Clc1cccc(-c2nc3ccccn3c2-c2ccccc2)c1 [CHEMBL2151878]
pIC50 Value (L. major [1]; [5]): 5.36 | Outcome (L. major [2]; [6]): Active

CCOC(=O)c1ccc(-c2nc3ccccn3c2-c2ccccc2)cc1 [CHEMBL2151879]
pIC50 Value (L. major [1]; [3]): 4.40 | Outcome (L. major [2]; [4]): Inactive

O=[N+]([O-])c1ccc(-c2nc3ccccn3c2-c2ccccc2)cc1 [CHEMBL2151880]
pIC50 Value (L. major [1]; [3]): 4.52 | Outcome (L. major [2]; [4]): Inactive

COc1ccc(-c2nc3ccccn3c2-c2ccccc2)cc1 [CHEMBL2151881]
pIC50 Value (L. major [1]; [3]): 4.58 | Outcome (L. major [2]; [4]): Inactive

COc1ccc(-c2nc3ccccn3c2-c2cccc([N+](=O)[O-])c2)cc1 [CHEMBL2151882]
pIC50 Value (L. major [1]; [3]): 4.85 | Outcome (L. major [2]; [4]): Inactive

COc1ccccc1-c1nc2ccccn2c1-c1ccccc1 [CHEMBL2151883]
pIC50 Value (L. major [1]; [3]): 4.74 | Outcome (L. major [2]; [4]): Inactive

Clc1cc(Cl)cc(-c2nc3ccccn3c2-c2ccccc2)c1 [CHEMBL2151989]
pIC50 Value (L. major [1]; [3]): 4.41 | Outcome (L. major [2]; [4]): Inactive

Clc1cc(Cl)cc(-c2nc3ccccn3c2-c2cccnc2)c1 [CHEMBL2151990]
pIC50 Value (L. major [1]; [3]): 4.50 | Outcome (L. major [2]; [4]): Inactive

C[C@@H](OP(N)(=O)N(CCCl)CCCl)c1ccc([N+](=O)[O-])cc1 (stereo partly shown) [CHEMBL2158071]
pIC50 Value (L. major [1]; [3]): 4.52 | Outcome (L. major [2]; [4]): Inactive

C[C@H](OP(N)(=O)N(CCCl)CCCl)c1ccc([N+](=O)[O-])cc1 (stereo partly shown) [CHEMBL2158072]
pIC50 Value (L. major [1]; [3]): 4.52 | Outcome (L. major [2]; [4]): Inactive

NP(=O)(OCc1ccc([N+](=O)[O-])cn1)N(CCCl)CCCl (stereo not shown) [CHEMBL2158073]
pIC50 Value (L. major [1]; [3]): 5.08 | Outcome (L. major [2]; [4]): Active

C[n+]1ccc(-c2c3nc(c(-c4cc[n+](C)cc4)c4ccc([nH]4)c(-c4cc[n+](C)cc4)c4nc(c(-c5cc[n+](C)cc5)c5ccc2[nH]5)C=C4)C=C3)cc1.Cc1ccc(S(=O)(=O)[O-])cc1.Cc1ccc(S(=O)(=O)[O-])cc1.Cc1ccc(S(=O)(=O)[O-])cc1.Cc1ccc(S(=O)(=O)[O-])cc1 [CHEMBL2170855]
pIC50 Value (L. major [1]; [3]): 4.68 | Outcome (L. major [2]; [4]): Inactive

COc1ccc(-n2nnc3c(N4CCCC(O)C4)nc(CC4CCCCC4)nc32)cc1 (stereo not shown) [CHEMBL2171512]
pIC50 Value (L. major [1]; [3]): 5.07 | Outcome (L. major [2]; [4]): Active

CC(=O)N1c2ccccc2Oc2ccccc21 [CHEMBL2180182]
pIC50 Value (L. major [1]; [3]): 4.00 | Outcome (L. major [2]; [4]): Inactive

Cc1ccc2cc(C3CC(c4ccc(Br)s4)=NN3)c(Cl)nc2c1 (stereo not shown) [CHEMBL2235715]
pIC50 Value (L. major [1]; [5]): 5.64 | Outcome (L. major [2]; [6]): Active

Cc1ccc2cc(C3CC(c4ccc(I)s4)=NN3)c(Cl)nc2c1 (stereo not shown) [CHEMBL2235716]
pIC50 Value (L. major [1]; [5]): 5.71 | Outcome (L. major [2]; [6]): Active

Cc1cccc2cc(C3CC(c4ccsc4)=NN3)c(Cl)nc12 (stereo not shown) [CHEMBL2235717]
pIC50 Value (L. major [1]; [5]): 5.69 | Outcome (L. major [2]; [6]): Active

Cc1ccsc1C1=NNC(c2cc3cccc(C)c3nc2Cl)C1 (stereo not shown) [CHEMBL2235718]
pIC50 Value (L. major [1]; [5]): 5.64 | Outcome (L. major [2]; [6]): Active

Cc1csc(C2=NNC(c3cc4cccc(C)c4nc3Cl)C2)c1 (stereo not shown) [CHEMBL2235719]
pIC50 Value (L. major [1]; [5]): 5.66 | Outcome (L. major [2]; [6]): Active

Cc1ccc(C2=NNC(c3cc4cccc(C)c4nc3Cl)C2)s1 (stereo not shown) [CHEMBL2235720]
pIC50 Value (L. major [1]; [5]): 5.58 | Outcome (L. major [2]; [6]): Active

Cc1cc(C2=NNC(c3cc4cccc(C)c4nc3Cl)C2)c(C)s1 (stereo not shown) [CHEMBL2235721]
pIC50 Value (L. major [1]; [5]): 5.58 | Outcome (L. major [2]; [6]): Active

Cc1cccc2cc(C3CC(c4sccc4Cl)=NN3)c(Cl)nc12 (stereo not shown) [CHEMBL2236129]
pIC50 Value (L. major [1]; [5]): 5.63 | Outcome (L. major [2]; [6]): Active

Cc1cccc2cc(C3CC(c4ccc(Cl)s4)=NN3)c(Cl)nc12 (stereo not shown) [CHEMBL2236130]
pIC50 Value (L. major [1]; [5]): 5.68 | Outcome (L. major [2]; [6]): Active

Cc1cccc2cc(C3CC(c4cc(Cl)sc4Cl)=NN3)c(Cl)nc12 (stereo not shown) [CHEMBL2236131]
pIC50 Value (L. major [1]; [5]): 5.70 | Outcome (L. major [2]; [6]): Active

Cc1cccc2cc(C3CC(c4sccc4Br)=NN3)c(Cl)nc12 (stereo not shown) [CHEMBL2236132]
pIC50 Value (L. major [1]; [5]): 5.64 | Outcome (L. major [2]; [6]): Active

Cc1cccc2cc(C3CC(c4ccc(Br)s4)=NN3)c(Cl)nc12 (stereo not shown) [CHEMBL2236133]
pIC50 Value (L. major [1]; [5]): 5.64 | Outcome (L. major [2]; [6]): Active

Cc1cccc2cc(C3CC(c4ccc(I)s4)=NN3)c(Cl)nc12 (stereo not shown) [CHEMBL2236134]
pIC50 Value (L. major [1]; [5]): 5.77 | Outcome (L. major [2]; [6]): Active

Cc1ccc2cc(C3CC(c4ccsc4)=NN3)c(Cl)nc2c1 (stereo not shown) [CHEMBL2236135]
pIC50 Value (L. major [1]; [5]): 5.54 | Outcome (L. major [2]; [6]): Active

Cc1ccc2cc(C3CC(c4sccc4C)=NN3)c(Cl)nc2c1 (stereo not shown) [CHEMBL2236136]
pIC50 Value (L. major [1]; [5]): 5.65 | Outcome (L. major [2]; [6]): Active

Cc1csc(C2=NNC(c3cc4ccc(C)cc4nc3Cl)C2)c1 (stereo not shown) [CHEMBL2236137]
pIC50 Value (L. major [1]; [5]): 5.59 | Outcome (L. major [2]; [6]): Active

Cc1ccc2cc(C3CC(c4ccc(C)s4)=NN3)c(Cl)nc2c1 (stereo not shown) [CHEMBL2236138]
pIC50 Value (L. major [1]; [5]): 5.58 | Outcome (L. major [2]; [6]): Active

Cc1ccc2cc(C3CC(c4cc(C)sc4C)=NN3)c(Cl)nc2c1 (stereo not shown) [CHEMBL2236139]
pIC50 Value (L. major [1]; [5]): 5.67 | Outcome (L. major [2]; [6]): Active

Cc1ccc2cc(C3CC(c4sccc4Cl)=NN3)c(Cl)nc2c1 (stereo not shown) [CHEMBL2236140]
pIC50 Value (L. major [1]; [5]): 5.67 | Outcome (L. major [2]; [6]): Active

Cc1ccc2cc(C3CC(c4ccc(Cl)s4)=NN3)c(Cl)nc2c1 (stereo not shown) [CHEMBL2236141]
pIC50 Value (L. major [1]; [5]): 5.64 | Outcome (L. major [2]; [6]): Active

Cc1ccc2cc(C3CC(c4cc(Cl)sc4Cl)=NN3)c(Cl)nc2c1 (stereo not shown) [CHEMBL2236142]
pIC50 Value (L. major [1]; [5]): 5.75 | Outcome (L. major [2]; [6]): Active

Cc1ccc2cc(C3CC(c4sccc4Br)=NN3)c(Cl)nc2c1 (stereo not shown) [CHEMBL2236143]
pIC50 Value (L. major [1]; [5]): 5.68 | Outcome (L. major [2]; [6]): Active

CC(=O)CCCCCCCCCC[C@H]1CC[C@@H](O)[C@@H](C)N1 [CHEMBL2262843]
pIC50 Value (L. major [1]; [3]): 5.27 | Outcome (L. major [2]; [4]): Active

Cc1ccc(-c2nc3ccccc3[nH]2)cc1 [CHEMBL2283280]
pIC50 Value (L. major [1]; [5]): 5.42 | Outcome (L. major [2]; [6]): Active

Cc1ccc(-c2nc3ccc([N+](=O)[O-])cc3[nH]2)o1 [CHEMBL2295863]
pIC50 Value (L. major [1]; [5]): 5.58 | Outcome (L. major [2]; [6]): Active

O=[N+]([O-])c1ccc2nc(-c3ccc(F)cc3)[nH]c2c1 [CHEMBL2297902]
pIC50 Value (L. major [1]; [5]): 5.52 | Outcome (L. major [2]; [6]): Active

CCCCOc1ccc(-c2nc3cc([N+](=O)[O-])ccc3[nH]2)cc1 [CHEMBL2297903]
pIC50 Value (L. major [1]; [5]): 5.61 | Outcome (L. major [2]; [6]): Active

CC(C)c1ccc(-c2nc3cc([N+](=O)[O-])ccc3[nH]2)cc1 [CHEMBL2297904]
pIC50 Value (L. major [1]; [5]): 5.55 | Outcome (L. major [2]; [6]): Active

O=[N+]([O-])c1ccc2[nH]c(-c3c[nH]c4ccccc34)nc2c1 [CHEMBL2297905]
pIC50 Value (L. major [1]; [5]): 5.65 | Outcome (L. major [2]; [6]): Active

O=[N+]([O-])c1ccc2nc(-c3ccc[nH]3)[nH]c2c1 [CHEMBL2297906]
pIC50 Value (L. major [1]; [5]): 5.40 | Outcome (L. major [2]; [6]): Active

O=[N+]([O-])c1ccc2nc(-c3cccs3)[nH]c2c1 [CHEMBL2297907]
pIC50 Value (L. major [1]; [5]): 5.48 | Outcome (L. major [2]; [6]): Active

COc1cccc(-c2nc3ccccc3[nH]2)c1 [CHEMBL2297908]
pIC50 Value (L. major [1]; [5]): 5.46 | Outcome (L. major [2]; [6]): Active

CC(C)c1ccc(-c2nc3ccccc3[nH]2)cc1 [CHEMBL2298014]
pIC50 Value (L. major [1]; [5]): 5.57 | Outcome (L. major [2]; [6]): Active

c1ccc2[nH]c(-c3c[nH]c4ccccc34)nc2c1 [CHEMBL2298015]
pIC50 Value (L. major [1]; [5]): 5.43 | Outcome (L. major [2]; [6]): Active

c1c[nH]c(-c2nc3ccccc3[nH]2)c1 [CHEMBL2298016]
pIC50 Value (L. major [1]; [5]): 5.46 | Outcome (L. major [2]; [6]): Active

Cc1ccc(-c2nc3ccccc3[nH]2)o1 [CHEMBL2298017]
pIC50 Value (L. major [1]; [5]): 5.37 | Outcome (L. major [2]; [6]): Active

COc1cccc(-c2nc3ccc([N+](=O)[O-])cc3[nH]2)c1 [CHEMBL2298018]
pIC50 Value (L. major [1]; [5]): 5.52 | Outcome (L. major [2]; [6]): Active
